# “And” between values parts separate entries of the source, which are not always exact repeats. Equal entries are not always repeated.
# Columns and labels:
# Test in all cases: AHAS product feedback inhibition assay
# Format in all cases: biochemical, Camelina sativa
# AHAS of 14CS0851-01-14 = conditions: for sensitivity of AHAS to feedback inhibition, comparison of enzyme extracts: 14CS0851-01-14 vs SRS 934 and MIDAS, 1 mM, 10 mM; for Absorbance reading (530 nm), raw data: single reps
# Procedure: (§1) Briefly, for each of the three comparators, leaf and stem (petiole) material was bulk-harvested at the 3-4 leaf stage from at least 30 plantlets, snap-frozen in liquid nitrogen, and stored at −80° C. The AHAS in vitro assay was conducted according to the method of Singh et al (1988), with modifications by Yu (2010) and Rustgi (2014). For each comparator, 4 grams of frozen material were ground to a fine powder with a mortar and pestle in liquid nitrogen and homogenized in 1 volume of cold extraction buffer containing 100 mM potassium phosphate buffer (pH7.5), 10 mM sodium pyruvate, 5 mM MgCl2, 100 μM flavin adenine dinucleotide (FAD), and 10% glycerol. Four 2-mL microcentrifuge tubes were used for each comparator. The homogenate was centrifuged at 13,000 rpm for 10 min at 4° C., supernatant collected and re-centrifuged for an additional 10 minutes under the same conditions. For each tube, 1 mL of supernatant was pipetted into a new 2-mL microcentrifuge tube, and protein was precipitated by the addition of 1 mL of saturated ammonium sulfate. The solution was mixed well by vortex and allowed to stand on ice for 20 minutes, then centrifuged at 13,000 rpm at 4° C. The protein pellet was resuspended in 300 μL of reaction buffer containing 50 mM potassium phosphate buffer (pH7.5), 100 mM sodium pyruvate, 10 mM MgCl2, 1 mM EDTA, 10 μM FAD, 100 mM NaCl, and 1 mM thiamine pyrophosphate. Tubes of each comparator were combined, mixed well, kept on ice and immediately used in the AHAS activity and feedback inhibition assays.
# (§2) Total protein concentration of the crude extract was determined by the Bradford method (Bradford, 1976). All assays were conducted using 300 μg of total protein each.
# (§3) […] (2010). The reaction mixture contained 50 μL enzyme extract and 50 μL 100 mM sodium pyruvate and inhibitor amino acid. The reaction was incubated at 37° C. for 60 minutes, then stopped and acetolactate converted to acetoin with the addition of 20 μL of 6 N H2SO4 and incubated at 60° C. for 15 minutes. A separate background “blank” was included for each sample group by adding 20 μL of 6 N H2SO4 prior to the addition of the enzyme extracts. Then, 95 μL of 0.55% w/v creatine solution and 95 μL of α-naphthol solution (5.5% w/v in 5 N NaOH) were added and the mixture incubated at 60° C. for a further 15 minutes. After cooling to room temperature for 15 minutes, enzyme activity was determined colorimetrically by reading the absorbance at 530 nm. Three independent experiments were conducted. Experiment 1 and 2 each contained 2 technical replicates, while experiment 3 included 3 technical replicates.
# AHAS of MIDAS = conditions: for Absorbance reading (530 nm), raw data: single reps
# Procedure: as §1, §2, §3
# AHAS of SRS 934 = conditions: 30 (mM) amino acid; for Absorbance reading (530 nm), raw data: single reps
# Procedure: as §1, §2, §3
# [1] = Experiment 1, 30 (mM) amino acid
# [2] = Experiment 2, 30 (mM) amino acid
# [3] = Experiment 2, 100 mM amino acid
# [4] = Experiment 3, 30 (mM) amino acid
structure (smiles),measurement,setting,value
CC[C@H](C)[C@H](N)C(=O)O [isoleucine],"sensitivity of AHAS to feedback inhibition, comparison of enzyme extracts",AHAS of 14CS0851-01-14; 100 mM amino acid,no significant difference
same,"Absorbance reading (530 nm), AVG of reps",AHAS of 14CS0851-01-14; [1],0.209
same,"Absorbance reading (530 nm), raw data",AHAS of 14CS0851-01-14; [1],0.201 and 0.217
same,"Absorbance reading (530 nm), AVG of reps",AHAS of 14CS0851-01-14; [2],0.186
same,"Absorbance reading (530 nm), raw data",AHAS of 14CS0851-01-14; [3],0.170
same,"Absorbance reading (530 nm), raw data",AHAS of 14CS0851-01-14; [2],0.200 and 0.171
same,"Absorbance reading (530 nm), AVG of reps",AHAS of 14CS0851-01-14; [4],0.088
same,"Absorbance reading (530 nm), raw data",AHAS of 14CS0851-01-14; [4],0.087 and 0.082 and 0.094
same,"Absorbance reading (530 nm), AVG of reps",AHAS of MIDAS; [1],0.2675
same,"Absorbance reading (530 nm), raw data",AHAS of MIDAS; [1],0.275 and 0.26
same,"Absorbance reading (530 nm), AVG of reps",AHAS of MIDAS; [3],0.163
same,"Absorbance reading (530 nm), raw data",AHAS of MIDAS; [2],0.208 and 0.176
same,"Absorbance reading (530 nm), AVG of reps",AHAS of MIDAS; [4],0.103
same,"Absorbance reading (530 nm), raw data",AHAS of MIDAS; [4],0.100 and 0.107 and 0.102
same,"Absorbance reading (530 nm), AVG of reps",AHAS of SRS 934; Experiment 1,0.234
same,"Absorbance reading (530 nm), raw data",AHAS of SRS 934; Experiment 1,0.233
same,"Absorbance reading (530 nm), AVG of reps",AHAS of SRS 934; Experiment 2,0.187
same,"Absorbance reading (530 nm), raw data",AHAS of SRS 934; Experiment 2,0.219 and 0.154
same,"Absorbance reading (530 nm), AVG of reps",AHAS of SRS 934; Experiment 3,0.033
same,"Absorbance reading (530 nm), raw data",AHAS of SRS 934; Experiment 3,0.100
CC(C)C[C@H](N)C(=O)O [leucine],"sensitivity of AHAS to feedback inhibition, comparison of enzyme extracts",AHAS of 14CS0851-01-14; 100 mM amino acid,no significant difference
same,"Absorbance reading (530 nm), AVG of reps","AHAS of 14CS0851-01-14; Experiment 1, 100 mM amino acid",0.143

# — patent publication US20250146011A1, “HERBICIDE-RESISTANT CAMELINA SATIVA PLANTS, AND VARIANT CAMELINA ACETOHYDROXYACID SYNTHASE POLYPEPTIDES” (Smart Earth Camelina Corp., priority 2019, published 2025)
